In patent publication US9315532B2, “Fatty acid carbohydrate hybrid molecules as therapeutic agents and methods thereof” (The Johns Hopkins University, priority 2005, dated 2016):
Entries after “also recorded” stand apart in the source; their conditions may differ.

Tests used:
Format in all cases: cell-based, human
HeLa cells = assay: Morphological changes to HeLa cells
Experimental: (§1) The studies on morphological changes induced by sodium butyrate (5) and But4ManNAc (1) were performed following a reported procedure (45). Briefly, HeLa cells (200,000 cells per well in a 6-well plate) were plated and allowed to form monolayers. After 24 h, the supernatant was aspirated, fresh medium (4.0 mL) was added and treated with either ethanol (20 μL (0.5%), control), 5 (5.0 mM), or 1 (250 μM). For the AD 293 (HEK) cells 2.0×10^6 cells in 10 mL of medium (100 mm tissue culture dishes) were plated and treated, immediately after plating, with either ethanol (50 μL, control), 5 (5.0 mM), or 1 (250 μM). Images were acquired at various time intervals under bright field using a Nikon Eclipse TE200 inverted microscope equipped with a DXM 1200 digital camera.

Jurkat cells [1] = assay: Cell viability assay (trypan blue exclusion); settings: 200 μM
Experimental: Jurkat cells (2.0×10^5 cells/mL) were seeded with 1-4 at 200 μM in 6-well T. C. plates. Aliquots of cell suspension (20 μL) were removed on a daily basis diluted with either PBS (20 μL) or trypan blue solution (20 μL) and cell viability was determined by using the standard trypan blue exclusion method; three replicate counts were taken for each condition.

Jurkat cells [2] = assay: Flow cytometry analysis of cell cycle status (PI/RNase A)
Experimental: The cell cycle arrest induced by butyrate analogs was studied following the standard protocol (49). Briefly, Jurkat cells (2.3×10^5 cells/mL) were incubated with various concentrations of 1 (0, 25, 50, 75, 100, 150 and 200 μM); 2 (200 μM); 3 (200 μM); and 4 (200 μM) for five days. The cells were then harvested, counted, washed twice with PBS, re-suspended in PBS (500 μL), added to a cold solution of 78% aqueous ethanol (4.5 mL) using a glass Pasteur pipette and kept at 2.0° C. for at least 24 h. The fixed cells were centrifuged twice to remove the ethanol completely, re-suspended in propidium iodide (PI)/ribonuclease A (RNase A) staining buffer (BD Pharmingen, Catalog No. 550825, San Diego, Calif.) (500 μL for 1.0×10^6 cells), incubated at 37° C. for 15 min and analyzed by flow cytometry. The cellular aggregates were excluded from single cell populations using an area-width plot (FL2—PT fluorescence) for the cell cycle status determination. At least 10,000 gated events were counted for each determination.
Jurkat cells (2.5×10^5 cells/mL) were incubated with either ethanol (0.2%) or 1 (100 μM or 200 μM). Aliquots of cell suspensions were taken on day 0 and days 2-6, washed with PBS (twice) and fixed in 75% ethanol at 2.0° C. for at least 48 h. The cells were stained with PI/RNase staining buffer and analyzed by flow cytometry as given above.

AD293 (HEK) cells = assay: Morphological changes / toxicity in AD293 (HEK) cells
Experimental: as §1

SMILES: CCCC(=O)OC[C@H]1OC(OC(=O)CCC)[C@@H](NC(C)=O)[C@@H](OC(=O)CCC)[C@@H]1OC(=O)CCC (stereo partly drawn) [compound 1, 2-Acetylamino-2-deoxy-1,3,4,6-tetra-O-butanoyl-α,β-D-mannopyranoside]
- morphological changes / differentiation of HeLa cells (HeLa cells; 3 days, 1 at 250 μM, 5 at 5.0 mM): induced differentiation of HeLa cells; also recorded: growth of extended processes
- fold lower concentration for cellular responses than sodium n-butyrate (HeLa cells; HeLa cells): ~20 ×
- reduced cell viability in trypan blue assay (Jurkat cells [1]): exhibited reduced cell viability
- cell cycle status at lower concentrations (Jurkat cells [2]; Jurkat cells, 0-75 μM, 5 days): stepwise decrease in G0/G1 accumulation with a concomitant increase in cells at the G2/M stage
- population of apoptotic cells (DNA content) (Jurkat cells [2]; Jurkat cells, 0-200 μM, five days): dose dependent increase in population of apoptotic cells
- cell cycle status, time course (Jurkat cells [2]; Jurkat cells, 100 μM, until day 6): strong cell cycle inhibition at the G2/M stage
- cell cycle status, time course (Jurkat cells [2]; Jurkat cells, 200 μM): accumulated more rapidly at the G2/M stage
- cell cycle status / apoptosis (Jurkat cells [2]; Jurkat cells, 200 μM, 5 days): majority of cells treated with 1 appeared to be apoptotic
- cells with DNA in the sub G0 range (Jurkat cells [2]; Jurkat cells, 200 μM, day 4): substantial proportion
- cells with DNA in the sub G0 range (Jurkat cells [2]; Jurkat cells, 200 μM, day 6): almost complete
- concentration above which non-viable cells (sub G0) accumulated (Jurkat cells [2]; Jurkat cells, 5 days): exceeded 75 μM
- apoptosis versus cell cycle arrest (summary) (Jurkat cells [2]; human cancer cells): efficiently induced apoptosis
- apoptosis / toxicity in AD293 cells (AD293 (HEK) cells; 2 days, 1 at 250 μM, 5 at 5.0 mM): considerable degree of apoptosis; also recorded: toxicity
- fold lower concentration for cellular responses than sodium n-butyrate (AD293 (HEK) cells; AD293 cells): ~20 ×
